Source: US9260417B2, “Therapeutic methods and compositions involving allosteric kinase inhibition” (AMITECH THERAPEUTIC SOLUTIONS, INC., priority 2010, dated 2016)
Where two headings read alike, the source gives them in different places.

How the values were obtained:
[1] = system: HUVECs; assay: XTT viability assay in HUVECs; assay type: cell-based, human; conditions: 72 h, read-out: EC50, endothelial cell viability
Method: FIG. 1A-1F illustrate molecular modeling and assay screening to compounds for dual targeting of PDGFRβ and RAF. (FIG. 1A) Molecular modeling of the amino-triazole based small molecules in PDGFRβ and RAF, respectively. […] A homology model of PDGFRβ was created with a structurally-related family member (VEGFR2, PDB 1y6b). […] To autophosphorylation, immunoblots were carried out with a phospho-tyrosine antibody. Membranes were stripped and reprobed for total PDGFRβ levels. […] (FIG. 1D) Structure activity relationships of the amino-triazole based small molecules comparing both PDGFRβ and B-RAF. […] Curves represent the average of 3 separate experiments, error bars represent ±SEM.
For XTT assays, cells were grown in 96-well plates overnight and all assays were conducted in growth medium will full serum and additives. […] Dose-response curves were plotted using GraphPad Prism software and EC50s were calculated using this program.

[2] = target: FLT3 (Homo sapiens (Human), UniProt P36888); assay: In vitro kinase panel (SelectScreen); assay type: biochemical
Method: (§2) In vitro kinase screen and competitive binding assay. […] 11-point Kd curves were determined for hits identified during the initial screen.

[3] = target: EGFR (Homo sapiens (Human), UniProt P00533); assay: In vitro kinase panel (SelectScreen); assay type: biochemical
Method: as §2

[4] = system: Tg(fli1:EGFP) zebrafish embryos; assay: Zebrafish angiogenesis model; conditions: for blood vessel formation in zebrafish embryos: treated 20-48 hpf, 1 μM 6 or SU5416, up to 10 μM 3; for effect on established intersegmental vessels: compound added at 30 hpf, […] 6, 1 μM sorafenib; for viability of zebrafish embryos: treatment at 48-72 hpf
Method: Embryos were treated with 1 μM 6 or SU5416, or 10 μM 3 from 20 hours post fertilization (hpf) until 48 hpf. Representative 3D reconstructions of the blood vasculature are shown for both the head and tail regions of the embryo. Designations for the major vessels in the head and tail of the zebrafish embryo at 48 hpf are available in FIG. 8A. (FIG. 3B) Disruption of lumen formation in the zebrafish during late vessel maturation. Zebrafish treated with either 1 μM 6 or 10 μM 3 from 20-48 hpf were imaged at 35 and 48 hpf. […] Shown is 3D overlap reconstruction of the GFP expressing intersegmental vessels with TUNEL-positive nuclei at 48 hpf (shown in red). Representative phase contrast views as well as quantification of intersegmental vessel volumes from FIG. 3A and FIG. 3B can be found in FIG. 8B-D, respectively. (FIG. 3C) Time course of drug addition to zebrafish. […] At 30 hpf the zebrafish embryos established early vessels with evident lumens. […] All scale bars=100 μm.
Z-stacks from laser scanning confocal microscopy are shown depicting formation of the intersegmental vessels at 48 hpf. n=6 embryos/treatment. (FIG. 4B) HUVECs were co-cultured with hTERT-human hepatic stellate cells in a 3-D collagen matrix in the presence of complete EBM-2 medium to monitor pericyte-associated endothelial tube formation. […] The endothelial tubes were stained at 24 h by adding 2 μl FITC labeled Ulex europaeus lectin (Vector labs) per well. Images were acquired 48 h post seeding of the cells. One representative panel from 3 independent experiments is shown. Green—FITC lectin labeled endothelial cells, Red—DiIC(3) labeled stellate cells. […] Scale bar=200 μm. (FIG. 4C) Tube lengths were measured using Metamorph software for each tube for all 10 fields that were acquired. The % pericyte-covered tube length was calculated from the ratio of tube length sums for the tubes with and without pericyte contact. Error bars are reported as ±SEM of two wells per group. *indicates p<0.05 compared to DMSO group.
Zebrafish studies. Transgenic Tg(fli1:EGFP) zebrafish embryos were purchased from www.zfin.org and reported elsewhere (Lawson, et al. (2002) Dev Biol 248:307-318) and maintained according to (“Zebrafish—A Practical Approach”, Oxford University Press, 2002). Compounds in DMSO stock solutions were diluted directly into the water and vessels were imaged for GFP expression using a Nikon c1-si confocal microscope. Apoptosis was measured by TUNEL staining using the Apoptag in situ Red Fluorescence Kit (Chemicon) with a protocol described previously (Stanton, et al. (2006) The Journal of biological chemistry 281:28782-28793).

[5] = target: FLT3 D835Y (Homo sapiens (Human), UniProt P36888, D835Y); assay: In vitro kinase panel (SelectScreen); assay type: biochemical
Method: as §2

[6] = system: XPA-1 cells; assay: Cell cycle analysis of XPA-1 cells (flow cytometry); assay type: cell-based; conditions: 5 μM, 20 h
Method: For cell cycle analysis, cells were grown in complete DMEM+10% FBS in the presence of each inhibitor and harvested after 20 h of inhibitor treatment. Cell cycle analysis was performed by flow cytometry following propidium iodide staining. The cells were harvested, fixed with ice cold methanol, treated for 45 min with 10 μg/ml of RNAse and resuspended in PBS containing 10 μg/ml of PI, and analysed by flow cytometry. […] For corresponding confocal microscopy images, cells attached to coverslips were fixed with cold methanol and permeabilized in PBS containing 0.1% triton X-100 for two minutes and blocked for 60 minutes, at room temperature with 2% BSA in PBS. Cells were stained with the DNA binding dye TOPRO-3 (Invitrogen) to label the DNA and laminB (Santa Cruz) to label the nuclear envelope. The anti-Lamin B antibody was used at a 1:100 dilution for two hours at room temperature. After washing several times with PBS, cells were stained for two hours at room temperature, with secondary antibody diluted 1:300 and co-incubated with TOPRO-3 (1:500) (Invitrogen). Samples were mounted in Vectashield hard-set mounting media (Vector Laboratories) and imaged on a Nikon Eclipse Cl confocal microscope with a 1.4 NA 60× oil-immersion lens, using minimum pinhole (30 μm). Images were captured and processed using EZ-C1 3.50 imaging software (Nikon, Inc). Scale bars, 10 μm.

[7] = system: SK-MEL-28; assay: Tumor cell viability; assay type: cell-based; conditions: Melanoma SK-MEL-28, B-RAF V600E
Method: (§1) For XTT assays, cells were grown in 96-well plates overnight and all assays were conducted in growth medium will full serum and additives. Compounds were serially diluted in DMSO and then further diluted into the medium to give the appropriate concentration while minimizing precipitation associated with serial diluting in medium alone Inhibitors were added for 72 h and cell viability was quantified at 450 nm after the addition of 1 mg/ml XTT solution (Sigma-Aldrich) in phenol-red free DMEM medium containing […] (Sigma-Aldrich). Dose-response curves were plotted using GraphPad Prism software and EC50s were calculated using this program.

[8] = system: R40P; assay: Tumor cell viability; assay type: cell-based; conditions: Pancreatic (mouse spontaneous model) R40P, K-Ras
Method: as §1

[9] = system: MCF7; assay: Tumor cell viability; assay type: cell-based; conditions: Breast MCF7, PI3K
Method: as §1

[10] = system: HT29; assay: Tumor cell viability; assay type: cell-based; conditions: Colon HT29, B-RAF V600E
Method: as §1

[11] = system: SK-MEL-2; assay: Tumor cell viability; assay type: cell-based; conditions: Melanoma SK-MEL-2, N-Ras
Method: as §1

[12] = system: CHL-1; assay: Tumor cell viability; assay type: cell-based; conditions: Melanoma CHL-1
Method: as §1

[13] = HUVECs, full growth medium containing 10% FBS

Sequence of EGFR (P00533 25-1210): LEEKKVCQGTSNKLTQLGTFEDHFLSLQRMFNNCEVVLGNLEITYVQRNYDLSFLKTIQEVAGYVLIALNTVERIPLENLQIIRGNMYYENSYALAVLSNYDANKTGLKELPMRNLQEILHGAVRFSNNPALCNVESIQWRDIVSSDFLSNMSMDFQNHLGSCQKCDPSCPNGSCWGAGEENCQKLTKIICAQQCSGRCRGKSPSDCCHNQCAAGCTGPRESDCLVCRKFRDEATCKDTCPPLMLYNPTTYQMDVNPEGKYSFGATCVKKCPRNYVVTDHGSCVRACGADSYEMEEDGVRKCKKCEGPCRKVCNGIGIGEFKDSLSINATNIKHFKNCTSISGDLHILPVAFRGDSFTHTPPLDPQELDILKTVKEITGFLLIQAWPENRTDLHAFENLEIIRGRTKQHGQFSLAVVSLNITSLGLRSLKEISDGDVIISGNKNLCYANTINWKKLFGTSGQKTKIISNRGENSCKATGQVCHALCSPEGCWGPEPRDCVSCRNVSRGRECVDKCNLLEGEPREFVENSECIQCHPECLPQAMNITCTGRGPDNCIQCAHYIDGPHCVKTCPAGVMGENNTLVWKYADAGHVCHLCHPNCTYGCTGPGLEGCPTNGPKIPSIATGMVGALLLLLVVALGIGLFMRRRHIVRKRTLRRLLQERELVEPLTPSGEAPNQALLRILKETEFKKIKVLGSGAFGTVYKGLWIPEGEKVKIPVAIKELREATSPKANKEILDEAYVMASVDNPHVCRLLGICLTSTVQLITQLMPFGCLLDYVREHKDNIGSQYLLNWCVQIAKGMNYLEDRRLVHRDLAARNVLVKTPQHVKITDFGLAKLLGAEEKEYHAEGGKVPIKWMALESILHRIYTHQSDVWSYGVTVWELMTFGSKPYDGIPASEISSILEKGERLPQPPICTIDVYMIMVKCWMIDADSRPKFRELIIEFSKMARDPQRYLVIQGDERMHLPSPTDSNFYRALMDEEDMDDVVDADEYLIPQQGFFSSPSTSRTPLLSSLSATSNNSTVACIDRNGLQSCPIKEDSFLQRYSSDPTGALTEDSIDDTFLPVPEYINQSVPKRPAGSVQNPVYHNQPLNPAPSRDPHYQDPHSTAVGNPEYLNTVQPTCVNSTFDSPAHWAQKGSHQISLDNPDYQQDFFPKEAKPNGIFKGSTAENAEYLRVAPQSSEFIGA

Question: For `Nc1cc(Oc2ccc(-c3nnc(Nc4cccc(C(F)(F)F)c4)[nH]3)cc2)ncn1` [Compound 3], which EC50 [1, 13] is on record?
Answer: The EC50 was 18 µM.

Question: And the “% Inhibition at 10 μM” value [2]?
Answer: Its value is −4%.

Question: What about the “% Inhibition at 10 μM” value [3] of the same compound?
Answer: The value was −2%.

Question: And the “blood vessel formation in zebrafish embryos” value [4]?
Answer: The value was “had no effect”.

Question: What about the “% Inhibition at 10 μM” value [5] of the same compound?
Answer: The value was 29%.

Question: What about the “cell cycle / mitotic progression” value [6] of the same compound?
Answer: Its value is “showed no effect”.

Question: What does the source list for `CSc1nc(N)cc(Oc2ccc(-c3nnc(Nc4cccc(C(F)(F)F)c4)[nH]3)cc2)n1` [Compound 6]?
Answer: EC50 [1, 13]: 0.54 µM; % Inhibition at 10 μM [2]: −2%; EC50 [7]: 0.4 µM; EC50 [8]: 0.66 µM; EC50 [9]: 0.68 µM; EC50 [10]: 0.62 µM; EC50 [11]: 0.14 µM; EC50 [12]: 0.1 µM; % Inhibition at 10 μM [3]: −3%; effect on established intersegmental vessels [4]: did not suppress the vascular growth and patterning; blood vessel formation in zebrafish embryos [4]: failed to form mature intersegmental vessels; viability of zebrafish embryos [4]: all viable; % Inhibition at 10 μM [5]: 9%; cell cycle / mitotic progression [6]: G2/M arrest in all tumor cell lines tested

Question: Which results are given for `CNC(=O)c1cc(Oc2ccc(NC(=O)Nc3ccc(Cl)c(C(F)(F)F)c3)cc2)ccn1` [sorafenib, reference compound]?
Answer: EC50 ([1]; Homo sapiens, HUVEC): 13.2 µM; inhibition at 10 µM [2]: 9%; EC50 ([7]; Homo sapiens): 17.6 µM; EC50 [8]: 9.43 µM; EC50 ([9]; Homo sapiens): > 20 µM; EC50 ([10]; Homo sapiens, HT-29): > 20 µM; EC50 ([11]; Homo sapiens): 14.3 µM; EC50 ([12]; Homo sapiens): 6.1 µM; effect on established intersegmental vessels [4]: disrupted mature intersegmental blood vessels; viability of zebrafish embryos [4]: induced death in all animals tested; inhibition at 10 µM [5]: 72%; cell cycle / mitotic progression [6]: had no effect on mitotic progression
